Our source for the inhibition values is ChEMBL document CHEMBL3627608, “Crystal structures of human RIP2 kinase catalytic domain complexed with ATP-competitive inhibitors: Foundations for understanding inhibitor selectivity” (Bioorg Med Chem, 2015).

Test [1] concerns the target T1, Serine/threonine-protein kinase TAO3 (Homo sapiens) (UniProt Q9H2K8).
T1 sequence (whole entry): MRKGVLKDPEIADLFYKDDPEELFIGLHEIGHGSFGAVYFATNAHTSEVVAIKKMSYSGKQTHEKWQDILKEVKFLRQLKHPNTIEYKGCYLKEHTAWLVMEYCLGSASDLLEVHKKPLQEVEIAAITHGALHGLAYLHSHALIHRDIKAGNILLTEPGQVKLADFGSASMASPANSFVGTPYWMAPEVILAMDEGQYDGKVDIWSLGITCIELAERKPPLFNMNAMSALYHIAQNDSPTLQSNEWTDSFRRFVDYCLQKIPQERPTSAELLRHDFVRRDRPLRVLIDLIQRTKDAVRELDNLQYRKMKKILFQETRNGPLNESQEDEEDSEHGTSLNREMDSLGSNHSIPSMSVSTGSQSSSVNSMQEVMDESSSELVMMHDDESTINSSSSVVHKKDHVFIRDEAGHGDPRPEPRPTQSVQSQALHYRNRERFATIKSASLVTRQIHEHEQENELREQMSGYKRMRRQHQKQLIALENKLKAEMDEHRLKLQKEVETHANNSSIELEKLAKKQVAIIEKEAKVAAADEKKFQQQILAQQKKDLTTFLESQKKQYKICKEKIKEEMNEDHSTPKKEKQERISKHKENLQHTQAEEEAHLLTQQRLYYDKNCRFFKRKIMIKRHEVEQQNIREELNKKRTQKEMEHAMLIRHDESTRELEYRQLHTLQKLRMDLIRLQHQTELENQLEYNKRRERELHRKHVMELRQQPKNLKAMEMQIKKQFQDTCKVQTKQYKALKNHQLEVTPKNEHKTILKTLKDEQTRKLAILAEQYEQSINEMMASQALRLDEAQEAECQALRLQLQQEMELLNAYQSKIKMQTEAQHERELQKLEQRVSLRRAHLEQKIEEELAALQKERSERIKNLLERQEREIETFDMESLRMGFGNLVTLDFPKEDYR
Put plainly: Inhibition of TAOK3 (unknown origin) at 10 uM after 120 mins P33 radiolabeled kinase activity assay.

The target of test [2] is T2, Serine/threonine-protein kinase STK11 (Homo sapiens) (UniProt Q15831).
T2 sequence (whole entry): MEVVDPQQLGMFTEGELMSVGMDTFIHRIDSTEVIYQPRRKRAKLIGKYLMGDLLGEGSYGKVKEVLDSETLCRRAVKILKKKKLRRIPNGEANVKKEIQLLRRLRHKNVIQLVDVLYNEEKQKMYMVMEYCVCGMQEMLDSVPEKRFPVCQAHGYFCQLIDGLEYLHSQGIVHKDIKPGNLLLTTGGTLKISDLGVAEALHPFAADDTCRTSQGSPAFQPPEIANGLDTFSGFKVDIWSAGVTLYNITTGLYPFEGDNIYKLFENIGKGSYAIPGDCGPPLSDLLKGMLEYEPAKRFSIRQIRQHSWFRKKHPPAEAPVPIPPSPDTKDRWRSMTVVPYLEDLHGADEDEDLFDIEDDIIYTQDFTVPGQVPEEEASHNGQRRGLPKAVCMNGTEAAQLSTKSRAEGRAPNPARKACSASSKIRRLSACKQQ
Put plainly: Inhibition of LKB1 (unknown origin) at 10 uM after 120 mins P33 radiolabeled kinase activity assay.

Test [3] deals with Dual specificity protein kinase CLK2 (Homo sapiens) (UniProt P49760). Put plainly: Inhibition of CLK2 (unknown origin) at 10 uM after 120 mins P33 radiolabeled kinase activity assay.
Test [4] has as its target Protein kinase C eta type (Homo sapiens) (UniProt P24723). Put plainly: Inhibition of PKCeta (unknown origin) at 10 uM after 120 mins P33 radiolabeled kinase activity assay.
The species named for the next test is Homo sapiens. Put plainly: Inhibition of PKG1beta (unknown origin) at 10 uM after 120 mins P33 radiolabeled kinase activity assay.
Test [5] deals with Misshapen-like kinase 1 (Homo sapiens) (UniProt Q8N4C8). Put plainly: Inhibition of MINK (unknown origin) at 10 uM after 120 mins P33 radiolabeled kinase activity assay.
In test [6] the target is Dual specificity protein kinase CLK1 (Homo sapiens) (UniProt P49759). Put plainly: Inhibition of CLK1 (unknown origin) at 10 uM after 120 mins P33 radiolabeled kinase activity assay.
For test [7], the target named is T3, Tyrosine-protein kinase TXK (Homo sapiens) (UniProt P42681).
T3 sequence (whole entry): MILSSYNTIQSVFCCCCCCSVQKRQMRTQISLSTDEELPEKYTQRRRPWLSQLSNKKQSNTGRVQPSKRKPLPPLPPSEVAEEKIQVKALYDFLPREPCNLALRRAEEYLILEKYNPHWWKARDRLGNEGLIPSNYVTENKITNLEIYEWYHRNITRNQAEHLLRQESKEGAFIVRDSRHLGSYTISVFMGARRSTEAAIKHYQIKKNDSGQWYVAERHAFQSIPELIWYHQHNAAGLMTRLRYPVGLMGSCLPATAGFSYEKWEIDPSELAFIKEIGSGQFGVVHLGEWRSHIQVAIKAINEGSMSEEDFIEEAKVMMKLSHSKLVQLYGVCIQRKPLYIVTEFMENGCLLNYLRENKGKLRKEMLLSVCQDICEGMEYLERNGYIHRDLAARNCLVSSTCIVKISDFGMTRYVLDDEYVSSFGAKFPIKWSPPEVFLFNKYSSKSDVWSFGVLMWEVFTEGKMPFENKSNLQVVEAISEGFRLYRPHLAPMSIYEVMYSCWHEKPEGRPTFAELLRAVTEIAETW
Put plainly: Inhibition of TXK (unknown origin) at 10 uM after 120 mins P33 radiolabeled kinase activity assay.

Sequence of Protein kinase C eta type (Homo sapiens) (P24723 whole entry): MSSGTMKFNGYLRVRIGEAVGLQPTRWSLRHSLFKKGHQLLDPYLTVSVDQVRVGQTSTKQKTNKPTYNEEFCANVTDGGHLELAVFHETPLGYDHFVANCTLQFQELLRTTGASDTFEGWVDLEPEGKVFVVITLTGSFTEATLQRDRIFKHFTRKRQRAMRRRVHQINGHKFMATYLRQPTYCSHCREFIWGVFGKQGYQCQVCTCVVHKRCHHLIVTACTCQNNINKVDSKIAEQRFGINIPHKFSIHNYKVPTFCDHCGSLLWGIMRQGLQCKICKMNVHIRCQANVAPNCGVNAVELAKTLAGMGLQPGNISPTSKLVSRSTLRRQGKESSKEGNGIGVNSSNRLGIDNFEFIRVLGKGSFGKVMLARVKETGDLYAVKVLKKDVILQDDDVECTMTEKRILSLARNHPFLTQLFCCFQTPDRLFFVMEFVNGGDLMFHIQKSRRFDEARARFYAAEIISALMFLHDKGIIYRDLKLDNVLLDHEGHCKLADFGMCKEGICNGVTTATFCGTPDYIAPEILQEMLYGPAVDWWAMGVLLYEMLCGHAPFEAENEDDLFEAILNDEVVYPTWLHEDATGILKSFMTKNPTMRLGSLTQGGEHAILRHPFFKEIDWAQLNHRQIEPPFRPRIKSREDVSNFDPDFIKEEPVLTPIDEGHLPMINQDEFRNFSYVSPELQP
Sequence of Dual specificity protein kinase CLK2 (Homo sapiens) (P49760 whole entry, looked up): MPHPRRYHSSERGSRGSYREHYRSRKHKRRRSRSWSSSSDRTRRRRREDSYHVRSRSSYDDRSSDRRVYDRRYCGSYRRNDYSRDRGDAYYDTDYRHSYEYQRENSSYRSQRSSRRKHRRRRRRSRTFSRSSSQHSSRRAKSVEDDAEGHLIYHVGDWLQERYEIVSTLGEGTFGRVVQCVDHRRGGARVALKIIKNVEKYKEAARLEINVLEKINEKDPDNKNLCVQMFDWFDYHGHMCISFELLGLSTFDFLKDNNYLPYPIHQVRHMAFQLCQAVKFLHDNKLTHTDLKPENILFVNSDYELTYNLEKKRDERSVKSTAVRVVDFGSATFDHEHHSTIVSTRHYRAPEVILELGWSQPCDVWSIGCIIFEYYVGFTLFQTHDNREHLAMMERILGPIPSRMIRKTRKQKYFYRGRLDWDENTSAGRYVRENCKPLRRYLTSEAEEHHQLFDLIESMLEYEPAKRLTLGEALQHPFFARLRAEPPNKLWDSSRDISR
Sequence of Misshapen-like kinase 1 (Homo sapiens) (Q8N4C8 whole entry, looked up): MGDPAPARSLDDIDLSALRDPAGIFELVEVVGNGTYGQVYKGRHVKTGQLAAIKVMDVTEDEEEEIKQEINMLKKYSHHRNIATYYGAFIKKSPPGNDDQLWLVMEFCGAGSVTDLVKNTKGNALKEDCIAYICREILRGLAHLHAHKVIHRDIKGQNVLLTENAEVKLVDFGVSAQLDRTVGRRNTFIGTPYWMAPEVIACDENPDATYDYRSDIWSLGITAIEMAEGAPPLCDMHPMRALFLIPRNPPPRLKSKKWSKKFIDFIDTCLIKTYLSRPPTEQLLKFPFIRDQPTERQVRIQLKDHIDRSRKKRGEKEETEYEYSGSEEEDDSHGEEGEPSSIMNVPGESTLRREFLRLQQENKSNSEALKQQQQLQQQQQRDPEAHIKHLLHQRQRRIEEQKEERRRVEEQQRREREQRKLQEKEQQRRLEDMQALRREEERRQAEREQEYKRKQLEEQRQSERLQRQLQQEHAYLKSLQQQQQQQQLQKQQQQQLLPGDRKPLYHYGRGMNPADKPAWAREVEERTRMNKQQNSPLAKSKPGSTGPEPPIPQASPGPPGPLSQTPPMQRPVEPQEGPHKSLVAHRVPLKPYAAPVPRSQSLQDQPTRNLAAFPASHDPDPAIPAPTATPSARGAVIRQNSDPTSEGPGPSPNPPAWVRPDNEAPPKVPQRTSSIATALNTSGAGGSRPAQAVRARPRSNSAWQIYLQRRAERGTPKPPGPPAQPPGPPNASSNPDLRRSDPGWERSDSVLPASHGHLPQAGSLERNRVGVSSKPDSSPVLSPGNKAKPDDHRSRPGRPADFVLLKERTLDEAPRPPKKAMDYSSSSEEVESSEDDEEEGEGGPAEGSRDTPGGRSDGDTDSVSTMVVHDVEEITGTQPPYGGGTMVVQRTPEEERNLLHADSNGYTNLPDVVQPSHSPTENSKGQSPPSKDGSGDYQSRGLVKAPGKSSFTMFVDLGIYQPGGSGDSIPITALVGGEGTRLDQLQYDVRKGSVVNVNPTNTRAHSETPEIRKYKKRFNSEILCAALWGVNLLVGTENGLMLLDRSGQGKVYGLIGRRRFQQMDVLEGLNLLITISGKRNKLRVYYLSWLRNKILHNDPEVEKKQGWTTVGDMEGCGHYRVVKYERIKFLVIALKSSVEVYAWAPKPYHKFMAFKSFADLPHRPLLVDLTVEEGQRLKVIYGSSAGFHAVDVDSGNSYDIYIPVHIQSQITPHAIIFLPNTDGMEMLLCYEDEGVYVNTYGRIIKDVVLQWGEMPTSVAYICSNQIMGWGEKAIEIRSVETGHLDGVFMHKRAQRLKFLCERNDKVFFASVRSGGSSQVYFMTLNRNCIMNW
Sequence of Dual specificity protein kinase CLK1 (Homo sapiens) (P49759 whole entry, looked up): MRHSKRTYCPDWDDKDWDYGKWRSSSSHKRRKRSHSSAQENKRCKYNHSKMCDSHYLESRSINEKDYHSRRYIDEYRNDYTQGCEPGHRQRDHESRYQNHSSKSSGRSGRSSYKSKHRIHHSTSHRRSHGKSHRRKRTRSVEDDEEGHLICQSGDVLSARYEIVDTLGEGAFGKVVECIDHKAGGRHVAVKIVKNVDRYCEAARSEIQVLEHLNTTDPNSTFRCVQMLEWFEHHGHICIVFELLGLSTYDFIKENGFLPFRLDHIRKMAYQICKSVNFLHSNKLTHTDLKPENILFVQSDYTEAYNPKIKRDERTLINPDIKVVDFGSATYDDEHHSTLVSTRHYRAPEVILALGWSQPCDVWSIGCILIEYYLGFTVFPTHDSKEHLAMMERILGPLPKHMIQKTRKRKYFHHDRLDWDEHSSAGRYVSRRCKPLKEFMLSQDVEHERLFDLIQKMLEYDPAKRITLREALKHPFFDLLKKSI

Take `COCCNC(=O)c1ccc2c(c1)nc(-c1cnc(-c3ccc(Cl)cc3)[nH]1)n2CCOC`: the inhibition is -0.26% in test [1]; 3.09% in test [2]; 7.06% in test [3]; 0.75% in test [4]; -4.49% in the test filed under Homo sapiens; 60.7% in test [5]. Also, the inhibition in test [6] was 13.4%; in test [7], 27.8%.

Consider `CC(C)(C)c1cc(NC(=O)Nc2ccc(Oc3ccncc3)cc2)no1`, for which the inhibition in test [1] was 51%; in test [2] it was 3.9%; in test [3], 28.8%; in test [4], -2.64%; in the test filed under Homo sapiens, 15.2%; in test [5] it was 100%. For the same compound, the inhibition in test [6] is 50.7%; in test [7], 24.8%.

Regarding `CS(=O)(=O)c1cccc(Nc2nccc(-c3sc(N4CCOCC4)nc3-c3cccc(NS(=O)(=O)c4c(F)cccc4F)c3)n2)c1`, the inhibition in test [1] is 26.7%; in test [2], 46.2%; in test [3], 24.5%; in test [4] it was -5.94%; in the test listed under Homo sapiens, 2.75%; in test [5] it was 62.5%. The inhibition in test [6] was 14.1%; in test [7] it was 97.5%.

By inhibition is commonly meant the change of the read-out against control, counted positive when it falls.
